Experiment [1] deals with T1, THR beta-LBD (Homo sapiens, UniProt P10828).
T1 construct: THR alpha-LBD (0.4 nM final concentration) or THR beta-LBD (1.0 nM final concentration) was added; purchased ThermoFisher
T1 sequence (P10828 217-461 limits assumed): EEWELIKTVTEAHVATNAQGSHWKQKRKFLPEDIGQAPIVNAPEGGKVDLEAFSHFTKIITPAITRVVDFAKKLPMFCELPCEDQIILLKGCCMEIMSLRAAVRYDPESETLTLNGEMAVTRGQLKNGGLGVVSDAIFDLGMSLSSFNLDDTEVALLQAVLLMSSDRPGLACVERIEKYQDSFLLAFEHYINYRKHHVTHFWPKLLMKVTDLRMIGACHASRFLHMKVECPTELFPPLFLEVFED
The experiment can be described thus: LanthaScreen TR-FRET Thyroid Receptor beta Coactivator Assay. It counts as biochemical. The note with it: for THRβ-Selectivity: THR beta over THR alpha, derived from T3-selectivity normalized data; for pEC50: TR-FRET coactivator assay, 2 hours incubation at room temperature, run in duplicate multiple times, average data, read-out: EC50 THRβ-FRET. The procedure: LanthaScreen™ TR-FRET Thyroid Receptor alpha Coactivator Assay kit (ThermoFisher) and LanthaScreen™ TR-FRET Thyroid Receptor beta Coactivator Assay kit (ThermoFisher) were used for agonist compound screening. […] Buffer C (ThermoFisher) was added to each well before the 4× mixture of fluorescein-SCR2-2 coactivator (200 nM final concentration), Terbium-labeled anti-GST antibody (2 nM final concentration), and THR alpha-LBD (0.4 nM final concentration) or THR beta-LBD (1.0 nM final concentration) was added.

In experiment [2] the target is T2, THR alpha-LBD (Homo sapiens, UniProt P10827).
T2 construct: THR alpha-LBD (0.4 nM final concentration) or THR beta-LBD (1.0 nM final concentration) was added; purchased ThermoFisher
T2 sequence (P10827 163-410 isoform P10827-2 limits assumed, other chains not shown): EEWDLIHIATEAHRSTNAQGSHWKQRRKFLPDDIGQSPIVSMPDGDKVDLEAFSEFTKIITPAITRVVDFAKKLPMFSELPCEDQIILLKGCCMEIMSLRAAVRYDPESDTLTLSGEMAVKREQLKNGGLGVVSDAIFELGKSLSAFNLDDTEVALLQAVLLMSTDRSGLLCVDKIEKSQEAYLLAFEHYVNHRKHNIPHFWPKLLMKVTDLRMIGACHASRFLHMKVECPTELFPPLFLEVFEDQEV
Put plainly: LanthaScreen TR-FRET Thyroid Receptor alpha Coactivator Assay. The format is biochemical. The following applies: 2 hours incubation at room temperature, run in duplicate multiple times, average data, read-out: EC50 THRα-FRET. The procedure: Example B1: Time-Resolved Fluorescence Resonance Energy Transfer (TR-FRET) Assay for Thyroid Hormone Receptor Agonist Screening
LanthaScreen™ TR-FRET Thyroid Receptor alpha Coactivator Assay kit (ThermoFisher) and LanthaScreen™ TR-FRET Thyroid Receptor beta Coactivator Assay kit (ThermoFisher) were used for agonist compound screening. Compounds in DMSO were diluted using ECHO Liquid Handler (Labcyte Inc.) into 384 plates in 10-point 3-fold series in duplicate (5 micro M final top concentration). Buffer C (ThermoFisher) was added to each well before the 4× mixture of fluorescein-SCR2-2 coactivator (200 nM final concentration), Terbium-labeled anti-GST antibody (2 nM final concentration), and THR alpha-LBD (0.4 nM final concentration) or THR beta-LBD (1.0 nM final concentration) was added. After 2 hours incubation at room temperature in the dark, the TR-FRET signal was measured on an EnVision plate reader (PerkinElmer) with excitation at 340 nm and dual emission readout at 495 and 520 nm with the delay time of 100 micro second and the integration time of 200 micro second. The ratio of emission signal at 520 and at 495 was used to calculate EC50 using GraphPad Prism (GraphPad Software). […] Compounds' THR-beta selectivity values in Table 2 are derived from T3-selectivity normalized data.
A general note: Time-resolved FRET reads energy transfer from a long-lived donor to a nearby acceptor.

pEC50: −log10 of the molar value.

These results are taken from patent publication US11203587B2, “Thyroid hormone receptor beta agonist compounds” (Terns, Inc., priority 2018, dated 2021).

By pEC50 is commonly meant −log10 of the EC50, conventionally taken in molar units. On to `CC(=O)c1cc(Oc2c(Cl)cc(-c3n[nH]c(=O)[nH]c3=O)cc2Cl)nn(C)c1=O` [Compound 35, 6-(4-((5-acetyl-1-methyl-6-oxo-1,6-dihydropyridazin-3-yl)oxy)-3,5-dichlorophenyl)-1,2,4-triazine-3,5(2H,4H)-dione], for which the THRβ-Selectivity in experiment [1] turned out to be 10.6. In addition, the pEC50 in experiment [1] is 6.18; in experiment [2], 5.73.

For the compound `CC(O)c1cc(Oc2c(Cl)cc(-c3n[nH]c(=O)[nH]c3=O)cc2Cl)n[nH]c1=O` (stereo not drawn) [Compound 34, 6-(3,5-dichloro-4-((5-(1-hydroxyethyl)-6-oxo-1,6-dihydropyridazin-3-yl)oxy)phenyl)-1,2,4-triazine-3,5(2H,4H)-dione], in experiment [1], the THRβ-Selectivity was 8.6 and the pEC50 was 6.40. Besides, the pEC50 in experiment [2] was 5.94.

In the case of `C[C@@H](O)c1cc(Oc2c(Cl)cc(-c3nn(C)c(=O)[nH]c3=O)cc2Cl)n[nH]c1=O` (single isomer, unassigned) [Compound 31 P2], in experiment [1], the THRβ-Selectivity is 21.7 and the pEC50 was 6.35. Besides, the pEC50 in experiment [2] was 5.51.

For `CC(C)c1cc(C(=O)c2c(Cl)cc(-c3n[nH]c(=O)[nH]c3=O)cc2Cl)n[nH]c1=O` [Compound 8, 6-(3,5-dichloro-4-(5-isopropyl-6-oxo-1,6-dihydropyridazine-3-carbonyl)phenyl)-1,2,4-triazine-3,5(2H,4H)-dione], in experiment [1], the THRβ-Selectivity is 9.5 and the pEC50 was 5.84. For the same compound, the pEC50 in experiment [2] is 5.44.

Regarding `CC(O)c1cc(Oc2c(Cl)cc(-c3nn(C)c(=O)[nH]c3=O)cc2Cl)n[nH]c1=O` (stereo not drawn) [Compound 31, 6-(3,5-dichloro-4-((5-(1-hydroxyethyl)-6-oxo-1,6-dihydropyridazin-3-yl)oxy)phenyl)-2-methyl-1,2,4-triazine-3,5(2H,4H)-dione], in experiment [1], the THRβ-Selectivity is 14.4 and the pEC50 is 6.01. Besides, the pEC50 in experiment [2] was 5.57.

As to `CC(CO)c1cc(Oc2c(Cl)cc(-c3nn(C)c(=O)[nH]c3=O)cc2Cl)n[nH]c1=O` (stereo not drawn) [Compound 29, 6-(3,5-dichloro-4-((5-(1-hydroxypropan-2-yl)-6-oxo-1,6-dihydropyridazin-3-yl)oxy)phenyl)-2-methyl-1,2,4-triazine-3,5(2H,4H)-dione], in experiment [1], the THRβ-Selectivity came to 7.105 and the pEC50 was 5.68. Moreover, the pEC50 in experiment [2] is 5.39.

Consider `CC(C)c1cc(Oc2c(Cl)cc(-c3n[nH]c(=O)[nH]c3=O)cc2Cl)n[nH]c1=O` [Compound 2, 6-(3,5-dichloro-4-((5-isopropyl-6-oxo-1,6-dihydropyridazin-3-yl)oxy)phenyl)-1,2,4-triazine-3,5(2H,4H)-dione], for which, in experiment [1], the THRβ-Selectivity is listed as 27.7 and the pEC50 was 6.85. Besides, the pEC50 in experiment [2] was 6.17.

For `CC(C)c1cc(Oc2c(Cl)cc(-c3nn(CC(F)(F)F)c(=O)[nH]c3=O)cc2Cl)n[nH]c1=O` [Compound 21, 6-(3,5-dichloro-4-((5-isopropyl-6-oxo-1,6-dihydropyridazin-3-yl)oxy)phenyl)-2-(2,2,2-trifluoroethyl)-1,2,4-triazine-3,5(2H,4H)-dione], in experiment [1], the THRβ-Selectivity is recorded as more than 9.5 and the negative-log EC50 (pEC50) was 5.54. Moreover, the pEC50 in experiment [2] is less than 5.30.

`CC(C)c1cc(Oc2c(Cl)cc(-c3nn(C)c(=O)[nH]c3=O)cc2Cl)nn(C)c1=O` [Compound 9, 6-(3,5-dichloro-4-((5-isopropyl-1-methyl-6-oxo-1,6-dihydropyridazin-3-yl)oxy)phenyl)-2-methyl-1,2,4-triazine-3,5(2H,4H)-dione] came in with a THRβ-Selectivity in experiment [1] of 25.5. Besides, the pEC50 in experiment [1] is 7.62; in experiment [2] it was 6.79.

Regarding `CC(C)c1cc(Cc2c(Cl)cc(-c3n[nH]c(=O)[nH]c3=O)cc2Cl)n[nH]c1=O` [Compound 15, 6-(3,5-dichloro-4-((5-isopropyl-6-oxo-1,6-dihydropyridazin-3-yl)methyl)phenyl)-1,2,4-triazine-3,5(2H,4H)-dione], in experiment [1], the THRβ-Selectivity was 31.2 and the pEC50 is 6.42. For the same compound, the pEC50 in experiment [2] was 5.48.

As for `CCn1nc(-c2cc(Cl)c(Oc3cc(C(C)C)c(=O)[nH]n3)c(Cl)c2)c(=O)[nH]c1=O` [Compound 19, 6-(3,5-dichloro-4-((5-isopropyl-6-oxo-1,6-dihydropyridazin-3-yl)oxy)phenyl)-2-ethyl-1,2,4-triazine-3,5(2H,4H)-dione], in experiment [1], the THRβ-Selectivity is given as 13.9 and the pEC50 was 5.85. Moreover, in experiment [2], the pEC50 was less than 5.30.

In experiment [1], `O=c1[nH]nc(-c2cc(Cl)c(Oc3cc(C4CC4)c(=O)[nH]n3)c(Cl)c2)c(=O)[nH]1` [Compound 6, 6-(3,5-dichloro-4-((5-cyclopropyl-6-oxo-1,6-dihydropyridazin-3-yl)oxy)phenyl)-1,2,4-triazine-3,5(2H,4H)-dione] returned a THRβ-Selectivity of 23.6. Moreover, the pEC50 in experiment [1] was 6.71; in experiment [2] it was 6.01.

`CC[C@@H](C)c1cc(Oc2c(Cl)cc(-c3n[nH]c(=O)[nH]c3=O)cc2Cl)n[nH]c1=O` (single isomer, unassigned) [Compound 33 P2]: the THRβ-Selectivity in experiment [1] (listed as 33 P2) worked out at 14.1. The pEC50 in experiment [1] is 7.18; in experiment [2] it was 6.56.

On to `CC[C@@H](C)c1cc(Oc2c(Cl)cc(-c3n[nH]c(=O)[nH]c3=O)cc2Cl)n[nH]c1=O` (single isomer, unassigned) [Compound 33 P1], for which the THRβ-Selectivity in experiment [1] (listed as 33 P1) is on record as 11.3. Also, the pEC50 in experiment [1] is 6.16; in experiment [2], 5.61.

For the compound `CC(C)c1cc(Oc2c(Cl)cc(-c3nn(CC(F)F)c(=O)[nH]c3=O)cc2Cl)nn(C)c1=O` [Compound 24, 6-(3,5-dichloro-4-((5-isopropyl-1-methyl-6-oxo-1,6-dihydropyridazin-3-yl)oxy)phenyl)-2-(2,2-difluoroethyl)-1,2,4-triazine-3,5(2H,4H)-dione], in experiment [1], the THRβ-Selectivity came to 4.7 and the pEC50 was 5.92. For the same compound, in experiment [2], the pEC50 was 5.83.

Regarding `C[C@@H](O)c1cc(Oc2c(Cl)cc(-c3nn(C)c(=O)[nH]c3=O)cc2Cl)n[nH]c1=O` (single isomer, unassigned) [Compound 31 P1], the THRβ-Selectivity in experiment [1] (listed as 31 P1) was more than 26.2. The pEC50 in experiment [1] was 5.92; in experiment [2], less than 5.30.

Consider `CC(C)c1cc(C(=O)c2c(Cl)cc(-c3n[nH]c(=O)[nH]c3=O)cc2Cl)nn(C)c1=O` [Compound 7, 6-(3,5-dichloro-4-(5-isopropyl-1-methyl-6-oxo-1,6-dihydropyridazine-3-carbonyl)phenyl)-1,2,4-triazine-3,5(2H,4H)-dione], for which, in experiment [1], the THRβ-Selectivity is given as 15.3 and the negative-log EC50 (pEC50) was 6.87. In addition, the pEC50 in experiment [2] is 6.36.

As for `Cc1c(-c2n[nH]c(=O)[nH]c2=O)cc(Cl)c(Oc2cc(C(C)C)c(=O)n(C)n2)c1Cl` [Compound 5, 6-(3,5-dichloro-4-((5-isopropyl-1-methyl-6-oxo-1,6-dihydropyridazin-3-yl)oxy)-2-methylphenyl)-1,2,4-triazine-3,5(2H,4H)-dione], in experiment [1], the THRβ-Selectivity came out at 2.3 and the pEC50 was 7.01. The pEC50 in experiment [2] is 7.20.

On to `CC(C)c1cc(C(=O)c2c(Cl)cc(-c3nn(C)c(=O)[nH]c3=O)cc2Cl)n[nH]c1=O` [Compound 13, 6-(3,5-dichloro-4-(5-isopropyl-6-oxo-1,6-dihydropyridazine-3-carbonyl)phenyl)-2-methyl-1,2,4-triazine-3,5(2H,4H)-dione], for which the THRβ-Selectivity in experiment [1] was more than 27.4. Besides, the results for the pEC50 in experiment [1] and in experiment [2] were 6.12 and less than 5.30, respectively.

For the compound `CC(C)c1cc(Oc2c(Cl)cc(-c3nn(CC#N)c(=O)[nH]c3=O)cc2Cl)n[nH]c1=O` [Compound 22, 2-(6-(3,5-dichloro-4-((5-isopropyl-6-oxo-1,6-dihydropyridazin-3-yl)oxy)phenyl)-3,5-dioxo-4,5-dihydro-1,2,4-triazin-2(3H)-yl)acetonitrile], in experiment [1], the THRβ-Selectivity amounted to 12.9 and the pEC50 is 5.93. Also, the pEC50 in experiment [2] was 5.46.
